# Patent US20120165383A1, “INFLAMMATORY EYE DISEASE” (MASSACHUSETTS EYE & EAR INFIRMARY, priority 2004, published 2012)
# Legend:
# TNF-α = assay: Retinal TNF-α levels, ELISA, EIU rats; type: in vivo, rat; conditions: for LPS-induced increase of TNF-alpha levels in the retina: 1 mg/kg GA i.p. 24 h before LPS, FIG. 6
# Method: (§1) Materials and Methods: Female Lewis rats received a single intraperitoneal injection of 1 mg/kg GA or vehicle (DMSO). EIU was induced 24 hours later by a footpad injection of 200 mg/kg lipopolysaccharide (LPS).
# (§2) Retinal levels of VEGF, TNF-α, and leukocyte total levels of the LPS receptor CD14 were quantified with an ELISA method, whereas membranous CD14 levels were assessed with membrane precipitation and subsequent immunoblotting. For the ELISA, one day after the administration of the LPS rats were euthanized and retinal lysates were prepared on ice in RIPA lysis buffer (1% NP-40, 0.5% deoxycholate (DOC), 1% SDS, 150 mmol/L NaCl, 50 mmol/L Tris-HCl [pH 8.0]) containing sodium fluorid, […], phenylmethylsulfonylfluorid (PMSF), leupeptin and aprotinin. Protein concentration was determined by Bradford assay (Protein Assay, Bio-Rad, Hercules, Calif.). Samples containing the same amount of protein were assayed for their VEGF, TNF-α and CD14 levels with a commercially available kit (R&D systems, CA) as per the instructions of the manufacturer.
# VEGF = assay: Retinal VEGF levels, ELISA, EIU rats; type: in vivo, rat; conditions: for LPS-induced increase of VEGF levels in the retina: 1 mg/kg GA i.p. 24 h before LPS, FIG. 5
# Method: as §1, §2
# CD14 = assay: Leukocyte total levels of the LPS receptor CD14, EIU rats; type: in vivo, rat; conditions: 1 mg/kg GA i.p. 24 h before LPS, FIG. 1
# Method: as §1, §2
# leukocyte adhesion [1] = assay: Quantitative endothelial cell-neutrophil adhesion assay in vitro, endotoxin-induced uveitis (EIU) rats; type: cell-based, rat; conditions: 1 mg/kg GA i.p. 24 h before LPS; evaluated 24 h after LPS; vs DMSO vehicle
# Method: as §1
# (§3) Twenty-four hours after the administration of LPS, leukocyte adhesion was evaluated in vitro with quantitative endothelial cell-neutrophil adhesion assays and ex vivo with concanavalin A lectin staining of retinal flatmounts, as follows. After the induction of deep anesthesia in the rat, the chest cavity was opened, and a 14-gauge perfusion cannula was introduced to the left ventricle. The right atrium was opened with a 12-gauge needle to achieve outflow. With the heart providing the motive force, 250 mL/kg PBS was administered from the perfusion cannula to remove erythrocytes and non-adherent leukocytes. […] Lectin staining was followed by 1% bovine serum albumin (BSA)/PBS perfusion for 1 minute, and PBS perfusion alone for 4 minutes, to remove excess concanavalin A. The retinas were flatmounted in a water-based fluorescence anti-fading medium (Fluoromount; Southern Biotechnology, Birmingham, Ala.) and imaged by fluorescence microscopy (Axioplan, FITC filter, 40×; Carl Zeiss, Oberkochen, Germany). […] Leukocyte location was scored as being either arteriolar, venular, or capillary. The total number of adherent leukocytes per retina was counted. […]
# blood-retinal barrier = assay: Blood-retinal barrier breakdown by Evans Blue extravasation, EIU rats; type: in vivo, rat; conditions: 1 mg/kg GA i.p. 24 h before LPS
# Method: as §1
# (§4) Leukocyte activation was quantified with a myeloperoxidase (MPO) activity assay and blood-retinal barrier breakdown was assessed by Evans Blue extravasation. Animals were anesthetized and Evans blue dye (Sigma) dissolved in normal saline (30 mg/ml) was injected through the tail vein at a dosage of 45 mg/kg body weight. After the dye had circulated for 120 minutes, the chest cavity was opened and blood samples were obtained from the left ventricle to assess the Evans blue plasma concentration. These blood samples were centrifuged at 16,000 g for 5 minutes. […] The absorbance of Evans blue was measured by spectrophotometry as described below. […] The background-subtracted absorbance was determined by measuring each sample at 620 nm (absorbance maximum for Evans blue in formamide) and 740 nm (absorbance minimum). The concentrations of dye in the extracts and the blood samples were calculated using a standard curve of Evans blue in formamide. Blood-ocular barrier breakdown was calculated using the following equation, with results being expressed in microliters of plasma per gram of retina dry weight times hours of dye circulating time. […]
# [2] = tested on: intercellular adhesion molecule 1 (ICAM-1); assay: Retinal ICAM-1 levels, EIU rats; type: in vivo, rat; conditions: rats with EIU; FIG. 8
# Method: as §1
# leukocyte adhesion [3] = assay: Leukocyte adhesion ex vivo, concanavalin A lectin staining of retinal flatmounts, EIU rats; type: in vivo, rat; conditions: 1 mg/kg GA i.p. 24 h before LPS, evaluated 24 h after LPS, FIGS. 9-11
# Method: as §1, §3
# [4] = tested on: myeloperoxidase (MPO) activity; assay: Leukocyte activation, myeloperoxidase (MPO) activity assay, EIU rats; type: in vivo, rat; conditions: 1 mg/kg GA i.p. 24 h before LPS, leukocytes from rats with EIU, FIG. 7
# Method: as §1, §4
# NF-κB = assay: Retinal NF-κB activity, modified ELISA (Trans-AM), EIU rats; type: in vivo, rat; conditions: 1 mg/kg GA i.p. 24 h before LPS, FIG. 4
# Method: as §1
# (§5) Retinal activities of NF-κB and HIF-1α were quantified with a modified ELISA method as described in Poulaki et al., Am. J. Pathol. 165(2):457-69 (2004) and Poulaki et al., J. Clin. Invest. 109(6):805-15 (2002). NF-κB activation was analyzed using the Trans-AM NF-κB […] transcription factor assay kit (Active Motif, Carlsbad, Calif.) according to the manufacturer's instructions, as previously described (Mitsiades et al., Proc. Natl. Acad. Sci. USA, 99:14374-14379 (2002); Mitsiades et al., Blood, 99:4525-4530 (2002)). […] Transcription factor binding to the target oligonucleotide was detected by incubation with respective specific primary monoclonal antibodies, visualized by anti-IgG horseradish peroxidase conjugate and developing solution, and quantified at 450 nm with a reference wavelength of 655 nm. Background binding was calculated by adding in selected wells the respective consensus oligonucleotides in excess (20 pmol/well) as soluble competitors that prevented transcription factor binding to the probe immobilized on the plate. […]
# membrane CD14 = assay: Membranous CD14 levels in leukocytes, membrane precipitation and immunoblotting, EIU rats; type: in vivo, rat; conditions: 1 mg/kg GA i.p. 24 h before LPS, FIG. 2
# Method: Retinal levels of VEGF, TNF-α, and leukocyte total levels of the LPS receptor CD14 were quantified with an ELISA method, whereas membranous CD14 levels were assessed with membrane precipitation and subsequent immunoblotting. […] Protein concentration was determined by Bradford assay (Protein Assay, Bio-Rad, Hercules, Calif.). […]
# Neutrophils were isolated from whole blood by density gradient centrifugation with Histopaque® 1083 cell separation media (Sigma, St Louis, Mo.) according to the manufacturer's instructions. […] The preparations contained>85% monocytes as determined by eosin and methylene blue staining (Leukostat Staining System, Fisher Scientific, Pittsburgh, Pa.). […] The samples were cleared by centrifugation (14,000 rpm, 30 min, 40° C.) and assessed for protein concentration. Biotinylated proteins, representing the cell surface proteins, were immunoprecipitated with Streptavidin-agarose for 2 hours at 40° C., electrophoresed in an SDS-PAGE and CD14 levels were detected by Western Blotting as described.
# HIF-1α = assay: Retinal HIF-1α activity, modified ELISA binding assay, EIU rats; type: in vivo, rat; conditions: 1 mg/kg GA i.p. 24 h before LPS, FIG. 3
# Method: as §1, §5
# [5] = attributed to instability; cited from earlier work
# [6] = Phase I trials in various neoplasias; cited from earlier work
# [7] = stated for 17AAG in the description, no conditions given
structure (smiles),measurement,setting,value
COC1=C2C[C@@H](C)C[C@H](OC)[C@H](O)[C@@H](C)/C=C(\C)[C@H](OC(N)=O)[C@@H](OC)/C=C\C=C(/C)C(=O)NC(=CC1=O)C2=O [Geldanamycin],LPS-induced increase of TNF-alpha levels in the retina,TNF-α,significantly suppressed
same,LPS-induced increase of TNF-alpha levels in the retina,TNF-α; listed as geldanamycin,decreases
same,LPS-induced increase of VEGF levels in the retina,VEGF,significantly suppressed
same,LPS-induced increase of VEGF levels in the retina,VEGF; listed as geldanamycin,decreases
same,LPS-induced increase in total CD14 levels in the leukocytes,CD14,does not affect
same,LPS-induced increase in total CD14 levels in the leukocytes,CD14; listed as GA,did not reduce
same,LPS-induced increase in leukocyte adhesion in vitro,leukocyte adhesion [1],significantly suppressed
same,vascular leakage (blood-retinal barrier breakdown),blood-retinal barrier; FIG. 12,significantly suppressed
same,vascular leakage (blood-retinal barrier breakdown),"blood-retinal barrier; FIG. 12, listed as geldanamycin",decreases
same,LPS-induced upregulation of retinal ICAM-1 levels,[2],decreases
same,LPS-induced increase in leukocyte adhesion ex vivo,leukocyte adhesion [3],significantly suppressed
same,MPO activity,[4],significantly suppressed
same,MPO activity,[4]; listed as geldanamycin,reduces
same,LPS-induced increase of NF-κB activity in the retina,NF-κB,significantly suppressed
same,LPS-induced increase of NF-κB activity in the retina,NF-κB; listed as geldanamycin,decreases
same,membrane CD14 levels in leukocytes,membrane CD14,decreases
same,membrane CD14 levels in leukocytes,membrane CD14; listed as GA,significantly decreased
same,LPS-induced increase of HIF-1α activity in the retina,HIF-1α,significantly suppressed
same,LPS-induced increase of HIF-1α activity in the retina,HIF-1α; listed as geldanamycin,decreases
"C[C@@H]1C[C@H]2O[C@@H]2/C=C\C=C\C(=O)Cc2c(Cl)c(O)cc(O)c2C(=O)O1 [radicicol, Radicicol]",activity in animals,[5],little or no activity
"C=CCNC1=C2C[C@@H](C)C[C@H](OC)[C@H](O)[C@@H](C)/C=C(\C)[C@H](OC(N)=O)[C@@H](OC)/C=C\C=C(/C)C(=O)NC(=CC1=O)C2=O [17AAG, 17-Allylamino-17-demethoxygeldanamycin]",expression of TNF-α,TNF-α; [7],reduces
same,expression of VEGF,VEGF; [7],reduces
same,pharmacokinetic profile,[6],favorable pharmacokinetic profile
same,side effects,[6],transient and manageable side effects
